The values below come from patent US4169097A, “2,3-Dihydro-4H-1-benzopyran-4-one O-carbamoyl oximes” (priority 1978, dated 1979).

For this experiment, the system named is gastric acid secretion. The experiment can be described thus: modified standard pylorus-ligated secretory testing procedure in the rat. The format is in vivo, Sprague-Dawley rats. The conditions noted are these: 50-100 mg/kg p.o., 1 hr. prior to ligation, 4 hrs. after ligation; for % Inhibition Gastric acid output: titration to pH 7, vs control 0.5% Methocel; for % Inhibition Volume of gastric secretion: vs control 0.5% Methocel. From the text: Such effect is evidenced using a modified standard pylorus-ligated secretory testing procedure in the rat. Sprague-Dawley rats, weighing 180-210 g and previously fasted for 24 hrs., were used. All compounds were given perorally as suspensions in 0.5% Methocel 1 hr. prior to pylorus ligation. Under light ether anesthesia, the rat stomach was ligated at the pylorus region. Four hrs. after ligation, the conscious rat was sacrificed by a chloroform overdose. The stomach was carefully excised and its content drained into a centrifuge tube. Samples were centrifuged to separate secretions from debris. Gastric fluid volume reading and determination of sample contamination, based on debris and sample color, was made. Titration was performed on a sample aliquot from 1 ml diluted to a volume of 5 ml using distilled water. The titrant used was 0.1 N NaOH. Total gastric acid output in the stomach was determined by titration to pH 7. A dose from 50-100 mg/kg p.o. of a compound was administered to a group of rats and its effect on the volume of gastric secretion and acid output compared to a control group receiving 0.5% Methocel p.o. The activity of each compound based on the degree of inhibition of gastric acid output is set forth in Table I.

With `CNC(=O)ON=C1CCOc2ccccc21` [I, 2,3-Dihydro-4H-1-benzopyran-4-one O-(Methylcarbamoyl) oxime], the “% Inhibition Gastric acid output” value is 60.4% and the “% Inhibition Volume of gastric secretion” value stood at 34.1%.
The matching figures for `CCNC(=O)ON=C1CCOc2ccc(OC)cc21` [II, 2,3-Dihydro-6-methoxy-4-H-1-benzopyran-4-one O-(Ethylcarbamoyl)-oxime]: 57.7% and 33.2%.
For `CCNC(=O)ON=C1CCOc2ccccc21` [III, 2,3-Dihydro-4-H-1-Benzopyran-4-one O-(Ethylaminocarbonyl)oxime] the same measures were 79.7% and 61.8%.
On to `CNC(=O)ON=C1CCOc2ccc(OC)cc21` [IV, 2,3-Dihydro-6-methoxy-4H-1-benzopyran-4-one O-(Methylaminocarbonyl)oxime], for which the “% Inhibition Gastric acid output” value worked out at 45.5% and the “% Inhibition Volume of gastric secretion” value stood at 35.3%.
For `NC(=O)ON=C1CCOc2ccccc21` [IX, 2,3-Dihydro-4H-1-benzopyran-4-one O-(Aminocarbonyl)oxime] the same measures were 77.9% and 60.5%.
For `CNC(=O)ON=C1CCOc2ccc(Cl)cc21` [V, 6-Chloro-2,3-dihydro-4H-1-benzopyran-4-one O-(Methylaminocarbonyl)oxime] the same measures were 40.0% and 55.2%.
The matching figures for `CNC(=O)ON=C1CCOc2ccc(N)cc21` [VI, 6-Amino-2,3-dihydro-4H-1-benzopyran-4-one O(Methylaminocarbonyl)oxime]: 55.8% and 64.4%.
`C=CCNC(=O)ON=C1CCOc2ccccc21` [VII, 2,3-Dihydro-4H-1-benzopyran-4-one O-[(2-Propenyl)aminocarbonyl]oxime]: the “% Inhibition Gastric acid output” value was found to be 89.9% and the “% Inhibition Volume of gastric secretion” value is reported as 76.2%.
For `CCCNC(=O)ON=C1CCOc2ccccc21` [VIII, 2,3-Dihydro-4H-1-benzopyran-4-one 0-(1-Propylaminocarbonyl)oxime] the same measures were 88.1% and 73.1%.
